Blank lines part the entries; values can stand above or below the molecule they belong to.
Key:
U266 cells = assay: Active caspase-3 by FACS; assay type: cell-based; conditions: 0.5 μM, 8 h
Experimental: U266 cells were treated with RA195 (0.5 μM) and Bz(0.5 μM) for the period of 8 h. Cells were stained for PE-conjugated Caspase-3 antibody and measured active caspase-3 by FACS.

NCI-H929 cells = assay: Active caspase-3 by FACS; assay type: cell-based, human; conditions: 0.5 μM, 8 h
Experimental: NCI-H929 cells were treated with RA195 (0.5 μM) and Bz(0.5 μM) for the period of 8 h. Cells were stained for PE-conjugated Caspase-3 antibody and measured active caspase-3 by FACS.

[1] = test system: tetraubiquitin-firefly luciferase (4UbFL) reporter in HeLa cells; assay: Cell culture assay for luciferase (4UbFL reporter); assay type: cell-based, human; conditions: 4 hr treatment
Experimental: Sub-confluent cultures of HeLa cells were transfected with 4UbFL or FL plasmids using Lipofectamine 2000 reagent (Life Technologies, Carlsbad, Calif.). […] Luciferase activity in cell lysate was determined with a luciferase assay kit (Promega, Madison, Wis.) according to the manufacturer's instructions. Bioluminescence was measured by using a Glomax Multidetection system (Promega, Madison, Wis., USA).
HeLa cells were transiently transfected with tetra ubiquitin-fused firefly luciferase (4UB-FL) plasmid. After 48 h, the transfected cells were treated with titrations of the indicated compounds for 4 h, and luciferase activity was measured. Data is expressed as a 4UB-FL fold change compared to untreated cells.

purified 20S proteasomes = purified 20S proteasomes (Homo sapiens, UniProt P28072+P28074+Q99436); assay: 20S proteolytic activity assay; assay type: biochemical; conditions: 1 μM, 30 min
Experimental: Actin was used as a loading control. […] In FIG. 9C-E, purified 20S proteasomes were treated for 30 min with or without compounds (1 μM) prior to the addition of the specific fluorogenic substrate for chymotryptic (9C), tryptic (9D) or PGPH (9E) hydrolytic proteasome capacities. […] DMSO was added to all samples to a final concentration of 0.1% (upper panel). The effect of DMSO is highlighted by including ubiquitin—AMC (0.5 μM) hydrolysis with 2 nM UCH37 lacking DMSO (orange, bottom panel). In FIG. 9H, purified 19S RP (500 nM) in buffer was treated with corresponding compounds 30 min at 37° C. and AMC cleavage was measured with a fluorometer for 20 min. Ubal was used as a positive control.
Release of free AMC by the enzyme reaction was determined by measuring its fluorescence at 380 nm (excitation) and 440 nm (emission). The graphs shown are representative of at least three independent determinations and each data point is the mean of ±SD of triplicate determinations.
20S proteasome cleaves the chymotryptic substrate and releases fluorescent AMC.

cancer cells = assay: Antiproliferative activity against cancer cells (design rationale); assay type: cell-based
Excerpt: We used Chloro and Nitro functional groups as substituent's on the aromatic ring due to their greater electron withdrawing effect at ortho (or) para (or) meta (or) both positions along with different amino acid linkages on bis-benzylidine piperidone moiety. Amino acids were chosen based in their physical characteristics like very hydrophobic (phenylalanine), strongly basic and hydrophilic (lysine), basic and hydrophilic (histidine) and amphiphilic (glycine). Commercially available Fmoc and Boc protected amino acids were used in the synthesis, and they were evaluated for their antiproliferatory activity against cancer cells.
Next we synthesized another set of compounds by converting free amine functionality to its Acetate (Ac), Acrolyl (Acr) and Benzoyl […] analogs as these units are part of many anticancer drugs because of their smaller size and feasibility to form inter molecular hydrogen bonds with proteins.
In the RA195 molecule two amino functionalities of lysine can provide more flexibility to make better analogs.

HeLa cells [2] = assay: Cell surface HSP90 staining; assay type: cell-based, human; conditions: 24 hr
Excerpt: Cell surface HSP90 was detected by staining with purified anti-HSP90 mAb (Stressgen), followed by PE-conjugated anti-mouse IgG1. The data were acquired with a FACSCalibur and analyzed using CellQuest software.

HeLa cells [3] = assay: Drug combination index assay; assay type: cell-based, human; conditions: Homo sapiens, 48 hr, read-out: IC50 (single agent, Compusyn)
Experimental: The combination indices and a normalized isobologram were calculated using Compusyn software (www.combosyn.com).

4UbFL reporter = assay: Proteasome inhibition in vivo (4UbFL reporter bioluminescence); conditions: i.m. electroporated 4UbFL; RA190 40 mg/kg i.p., bortezomib 1.5 mg/kg i.p.
Experimental: After the indicated time points of treatment, bioluminescence was measured by injection of luciferin and imaging with an IVIS 200 (fold change±SD, *p<0.05, **p<0.01).
Two hours after gene gun delivery of the plasmid or one day post electroporation, mice were injected i.p. with 100 uL of luciferin (3 mg/mL) and anesthetized with isoflurane and optical imaging was performed for basal level luciferase expression. Images were acquired for 10 min with a Xenogen IVIS 200 (Caliper, Hopkinton, Mass.). Equally sized areas were analyzed using Living Image 2.20 software.

NCl-H929 = assay: Cell viability after 48-hr treatment (Table 1); assay type: cell-based, human; conditions: Homo sapiens, XTT assay
Experimental: (§1) Cells seeded at the concentration of 1,000 cells/well for HeLa, 5,000 cells/well for ES2 and HCT116 and 10,000-20,000 cells/well for other cell lines in 100 μL medium in 96-well plate were treated with RA series compounds at specified concentrations. […]

ES-2 = assay: Cell viability after 48-hr treatment (Table 1); assay type: cell-based, human; conditions: Homo sapiens, ES-2, XTT assay
Experimental: as §1

HT3 = assay: Cell viability after 48-hr treatment (Table 1); assay type: cell-based; conditions: Homo sapiens, HT-3; 48-hr treatment; XTT assay; read-out: IC50, HT3
Experimental: as §1

HaCaT = assay: Cell viability after 48-hr treatment (Table 1); assay type: cell-based; conditions: Homo sapiens, HaCaT; 48-hr treatment; XTT assay; read-out: IC50, HaCaT
Experimental: as §1

RPMI8226 = assay: Cell viability after 48-hr treatment (Table 1); assay type: cell-based; conditions: Homo sapiens, RPMI-8226, XTT assay
Experimental: as §1

SiHa = assay: Cell viability after 48-hr treatment (Table 1); assay type: cell-based; conditions: Homo sapiens, SiHa; 48-hr treatment; XTT assay; read-out: IC50, SiHa
Experimental: as §1

OVCAR3 = assay: Cell viability after 48-hr treatment (Table 1); assay type: cell-based, human; conditions: Homo sapiens, OVCAR-3, XTT assay
Experimental: as §1, with “Cell viability was assayed using CellTiter 960 AQueous One Solution Reagent (Promega, Madison, Wis.). Cells” for “Cells”

HeLa = assay: Cell viability after 48-hr treatment (Table 1); assay type: cell-based, human; conditions: Homo sapiens, HeLa; 48-hr treatment; XTT assay; read-out: IC50, HeLa
Experimental: as §1, with “Cell viability was assayed using CellTiter 960 AQueous One Solution Reagent (Promega, Madison, Wis.). Cells” for “Cells”

CasKi = assay: Cell viability after 48-hr treatment (Table 1); assay type: cell-based; conditions: Homo sapiens, Ca-Ski; 48-hr treatment; XTT assay; read-out: IC50, CasKi
Experimental: (§2) Cell viability was assayed using CellTiter 960 AQueous One Solution Reagent (Promega, Madison, Wis.). Cells seeded at the concentration of 1,000 cells/well for HeLa, 5,000 cells/well for ES2 and HCT116 and 10,000-20,000 cells/well for other cell lines in 100 μL medium in 96-well plate were treated with RA series compounds at specified concentrations. After the indicated periods, cells were incubated according to the manufacturer's protocol with the MTS labeling mixture for 1-2 hr and absorbance at 490 nm measured using a Benchmark Plus microplate spectrophotometer (BIO-RAD).

HOK-16B = assay: Cell viability after 48-hr treatment (Table 1); assay type: cell-based; conditions: 48-hr treatment; XTT assay; read-out: IC50, HOK-16B
Experimental: as §2

MM and HeLa cells = assay: Annexin-V flow cytometry; assay type: cell-based; conditions: 12 hr after treating
Experimental: Activation of ICE family members such as caspase-3 and -7 results in cleavage of poly ADP ribose polymerase (PARP) to 85 kDa and 25 kDa fragments and drives apoptosis.
Induction of apoptosis was determined using Annexin V-PE Apoptosis Detection Kit I (BD Pharmingen, San Diego, Calif.) according to the manufacturer's protocol.

FaDu = assay: Cell viability after 48-hr treatment (Table 1); assay type: cell-based; conditions: Homo sapiens, FaDu; 48-hr treatment; XTT assay; read-out: IC50, FaDu
Experimental: as §1, with “Cell viability was assayed using CellTiter 960 AQueous One Solution Reagent (Promega, Madison, Wis.). Cells” for “Cells”

MM.1S = assay: Cell viability after 48-hr treatment (Table 1); assay type: cell-based; conditions: Homo sapiens, MM1.S, XTT assay
Experimental: as §1, with “Cell viability was assayed using CellTiter 960 AQueous One Solution Reagent (Promega, Madison, Wis.). Cells” for “Cells”

SKOV3 = assay: Cell viability after 48-hr treatment (Table 1); assay type: cell-based; conditions: Homo sapiens, SK-OV-3; 48-hr treatment; XTT assay; read-out: IC50, SKOV3
Experimental: as §1, with “Cell viability was assayed using CellTiter 960 AQueous One Solution Reagent (Promega, Madison, Wis.). Cells” for “Cells”

C33A = assay: Cell viability after 48-hr treatment (Table 1); assay type: cell-based; conditions: Homo sapiens, C-33-A; 48-hr treatment; XTT assay; read-out: IC50, C33A
Experimental: as §1, with “Cell viability was assayed using CellTiter 960 AQueous One Solution Reagent (Promega, Madison, Wis.). Cells” for “Cells”

[4] = Complete blood counts and blood chemistry of C57BL/6 mice carrying TC-1 tumor; conditions: C57BL/6 mice with TC-1 tumor; nine doses every third day: RA190 40 mg/kg p.o., Bortezomib 1.5 mg/kg i.p.; mean ± SD, n = 3;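 further: blood drawn from the heart after euthanasia, cell counts read on an automated hemocytometer, heparinized plasma analyzed on an automated clinical chemistry analyzer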

SMILES: Cl.NCCCC[C@H](NC(=O)OCc1ccccc1Cl)C(=O)N1C/C(=C\c2ccc([N+](=O)[O-])cc2)C(=O)/C(=C/c2ccc([N+](=O)[O-])cc2)C1 [RA195Bn]
active caspase-3 (U266 cells): caused an increase in caspase-3 expression
active caspase-3 (NCI-H929 cells): caused an increase in caspase-3 expression
proteasome inhibition by 4UbFL stabilization (relative potency) [1]: more potent than the parent molecule RA195

SMILES: Cl.N[C@@H](Cc1ccccc1)C(=O)N1C/C(=C\c2ccc([N+](=O)[O-])cc2)C(=O)/C(=C/c2ccc([N+](=O)[O-])cc2)C1 [RA183]
chymotryptic activity of the 20S proteasome (Suc-LLVY-AMC) (purified 20S proteasomes): do not
active caspase-3 (U266 cells): caused an increase in caspase-3 expression
active caspase-3 (NCI-H929 cells): caused an increase in caspase-3 expression
antiproliferative potency among analogs (cancer cells): higher potency

IC50 (HeLa cells [3]): 21.7 nM
chymotryptic activity of the 20S proteasome (Suc-LLVY-AMC) (purified 20S proteasomes): inhibits
IC50 (NCl-H929): 5 nM
IC50 (RPMI8226): 10 nM
IC50 (OVCAR3): < 2500 nM
IC50 (HeLa): 30 nM
IC50 (MM.1S): 5 nM
IC50 (SKOV3): < 2500 nM
ALBNEW (Albumin) [4]: 2.50 ± 0.10
ALPNEW (Alkaline Phosphatase) [4]: 49 ± 5.29
ALTNEW (Alanine Aminotransferase) [4]: 26.33 ± 2.51
AMYL (Amylase) [4]: 473 ± 57.86
ASTNEW (Aspartate aminotransferase) [4]: 53 ± 18.52
BA(Basophils) [4]: 0.07 ± 0.06
BUNNEW (Blood Urea Nitrogen) [4]: 22.66 ± 5.13
CA (Calcium) [4]: 8.83 ± 0.60
CHOL (Cholesterol) [4]: 69 ± 7.93
CK_NEW (Creatinine Kinase) [4]: 93.66 ± 3.52
CREAT (Creatinine) [4]: 0.33 ± 0.05
EO (Eosinophils) [4]: 0.64 ± 0.48
GGTNEW (Gamma-Glutamyl Transferase) [4]: 5.00 ± 0.67
GLU (Glucose) [4]: 128 ± 20.29
HCT(Hematocrit) [4]: 42.36 ± 4.15
HDLNEW (High Density Lipoprotein) [4]: 28.33 ± 4.61
Hb (Hemoglobin) [4]: 11.3 ± 0.70
LDH (lactate Dehydrogenase) [4]: 245.33 ± 96
LY(Lymphocytes) [4]: 2.12 ± 1.83
MCHC (mean corpuscular hemoglobin concentration) [4]: 26.73 ± 1.16
MCV (Mean corpuscular Volume) [4]: 55.66 ± 1.72
MO(Monocytes) [4]: 0.20 ± 0.13
MPV (Mean Platelet Volume) [4]: 5.40 ± 0.10
NE(Neutrophils) [4]: 24.06 ± 15.07
PLT (Platelet) [4]: 1346 ± 87.5
RDW (Red Blood Cell Distribution Width) [4]: 20.13 ± 0.61
TBIL1 (Total bilirubin) [4]: 0.26 ± 0.05
TPROT (Total protein) [4]: 4.40 ± 0.26
TRIG (Triglycerides) [4]: 56.66 ± 15.88
UA (Uric Acid) [4]: 2.73 ± 0.87
WBC(White Blood Cells) [4]: 24.85 ± 23.94
SMILES: CC(C)C[C@H](NC(=O)[C@H](Cc1ccccc1)NC(=O)c1cnccn1)B(O)O [Bortezomib, reference compound]
cells with cell-surface HSP90 (HeLa cells [2]): 12.8%
bioluminescence compared to vehicle alone, 4 hr after treatment (4UbFL reporter): 2 fold
increase in bioluminescence, one day post-treatment (4UbFL reporter): 4 fold
IC50 (ES-2): 20 nM
IC50 (HT3): < 2500 nM
IC50 (HaCaT): < 2500 nM
IC50 (SiHa): 1000 nM
IC50 (CasKi): 50 nM
IC50 (HOK-16B): 20 nM
apoptosis (Annexin-V) (MM and HeLa cells): trigger extensive apoptosis
IC50 (FaDu): < 2500 nM
IC50 (C33A): < 2500 nM
